Publication PMC6474793 (Biochemistry, 2018)

How the values were obtained:
[1] = biological target: BauB (Acinetobacter baumannii, UniProt Q76HK0); assay: BauB binding by intrinsic Trp fluorescence quenching
[2] = Fe binding in CAS assay; reported previously; cited from earlier work

## C[C@@H]1ON(CCc2c[nH]cn2)C(=O)[C@H]1NC(=O)c1cccc(O)c1O [compound 1, acinetobactin]
[1]
  Kd: 300 ± 100 nM
[2]
  CAS (+/-): +
